Experimental data from ChEMBL document CHEMBL1130617, “S-aryl cysteine S,S-dioxides as inhibitors of mammalian kynureninase” (Bioorg Med Chem Lett, 1998).

Assays:
Kynureninase [1] = target: T1, Kynureninase (Rattus norvegicus, UniProt P70712); experiment: Compound was tested for the inhibition of mammalian kynureninase in rat liver; format: tissue-based
T1 sequence (P70712 whole entry): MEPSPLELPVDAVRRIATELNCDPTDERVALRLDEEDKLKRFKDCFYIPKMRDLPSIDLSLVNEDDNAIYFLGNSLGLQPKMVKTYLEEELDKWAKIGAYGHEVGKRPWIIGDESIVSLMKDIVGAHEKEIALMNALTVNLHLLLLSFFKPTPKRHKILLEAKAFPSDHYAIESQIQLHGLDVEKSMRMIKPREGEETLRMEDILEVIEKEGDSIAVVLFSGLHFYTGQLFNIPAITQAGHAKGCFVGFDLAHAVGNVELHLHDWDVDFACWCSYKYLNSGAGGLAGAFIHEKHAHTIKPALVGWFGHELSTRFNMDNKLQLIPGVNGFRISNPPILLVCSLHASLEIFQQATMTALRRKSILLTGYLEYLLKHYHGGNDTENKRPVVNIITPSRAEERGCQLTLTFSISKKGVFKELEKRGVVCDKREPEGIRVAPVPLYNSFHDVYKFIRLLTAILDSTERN

Kynureninase [2] = target: T1, Kynureninase; experiment: Compound was tested for the binding affinity against kynureninase in rat liver

| IC50 (Kynureninase [1]) [µM] | Ki (Kynureninase [2]) [µM] | SMILES |
| --- | --- | --- |
| 29 | – | COc1cccc(S(=O)(=O)CC(N)C(=O)O)c1N (stereo not given) |
| 20 | – | Nc1c(F)cccc1S(=O)(=O)CC(N)C(=O)O (stereo not given) |
| 11 | – | Cc1ccc(N)c(S(=O)(=O)CC(N)C(=O)O)c1 (stereo not given) |
| 36 | 18 | Nc1ccccc1S(=O)(=O)CC(N)C(=O)O (stereo not given) |
